Assay [1] has as its system GABAA receptor. The settings on record: background statement; cited from earlier work.
The subject of assay [2] is ddY male mice (pentylentetrazol-induced convulsion). Kind of assay: Test of Increasing Activity on Pentylentetrazol-induced Convulsion. Type of assay: in vivo. To be noted: Mus musculus, 0.5 h; 50 mg/kg, po; pentylentetrazol 70 mg/kg s.c. 15 min later; read-out: Effects (number of animals) with increased pentylentetrazol-induced convulsion (converted). How it is done:
It is known that benzodiazepine receptor inverse agonists increase convulsion induced by pentylentetrazol [cf. Progress in Neuro-Psychopharmacology and Biological Psychiatry, vol. […] Some compounds of the present invention were tested as to the activities of increasing the pentylentetrazol-induced convulsion.
A test compound (compounds disclosed in working examples) was orally administered to ddY male mice (weight; 22-25 g, five mice/group) in an amount of 5-100 mg/kg. […] The effects were evaluated by the number of mice among five mice, of which the convulsion increasing effects were observed.

The target in assay [3] is benzodiazepine receptor. In words: Benzodiazepine Receptor Binding Assay. To be noted: read-out: BZP-receptor Binding IC50; [3H]-diazepam 1.5 nM; rat brain crude synaptosome membrane; 0° C., 20 min.
Assay [4] has as its system GABAA receptor complex (TBPS binding). Kind of assay: TBPS Binding Assay. Also noted: species or system Wistar rats. To be noted: [35S]TBPS 0.4 nM, GABA 1 μM, rat cerebral cortex membrane, +% inverse agonistic, 0% antagonistic. How it is done:
The TBPS (t-butylbicyclophosphonothionate) binding assay and the preparation of the membrane specimen were done in a similar manner to the method of Biggio, G. et al. [cf. European Journal of Pharmacology, vol.
That is, to the cerebral cortex was added a 50-fold volume of an ice-cooled buffer (a 50 mM Tris-citrate buffer containing 100 mM sodium chloride, pH 7.4) and the mixture was homogenized at 0-4° C. and then centrifuged at 20,000 g for 20 minutes. The pellets thus obtained were once subjected to homogenization in a buffer and centrifugation by the same procedure as above and then kept in freezed state at -80° C. for more than 20 hours. On the test day, the freezed pellets were thawed and then subjected twice to the homogenization-centrifugation procedure as described above.
Subsequently, the filter was moved into a liquid scintillation vial and thereto was added a liquid scintillation cocktail (ACS-II, manufactured by Amersham, USA, 10 ml) and allowed to stand for a fixed period of time. […] Separately, the same procedures were repeated in the presence of Picrotoxin to determine the non-specific binding amount. The non-specific binding amount was deducted from the total binding amount to give the specific binding amount. The binding activity of the test compound was calculated by a variation rate, i.e., a rate of the specific binding amount of the test compound to the specific binding amount in control (using a solvent).

A word on the IC50: it is the concentration at which inhibition is half-maximal.

`CCc1c(C(=O)OC)ncc2[nH]c3cc(OC)c(OC)cc3c12` [DMCM, methyl-6,7-dimethoxy-4-ethyl-β-carboline-3-carboxylate]: the “uptake of Cl ion into cells” value in assay [1] was “increased”. Consider `O=c1[nH]c2ccnc(-c3ccsc3)c2cc1-c1nc(C2CC2)no1` [Example 247, 3-(3-Cyclopropyl-1,2,4-oxadiazol-5-yl)-5-(3-thienyl)-1,6-naphthyridin-2(1H)-one], for which, in assay [2], the responders at 50 mg/kg was 80%. In assay [3], the IC50 came to 1.39 nM. Moreover, in assay [4], the “TBPS binding Variation Rate” value turned out to be 16%. Take `CNC(=O)c1cc2c(cn1)[nH]c1ccccc12` [FG7142, N-methyl-β-carboline-3-carboxamide]: in assay [1], the “uptake of Cl ion into cells” value is given as “increased”. As to `NCc1cc(=O)[nH]o1` [Muscimol], in assay [1], the “uptake of Cl ion into cells” value is “decreased”. Take `O=C1CN=C(c2ccccc2Cl)c2cc([N+](=O)[O-])ccc2N1` [chlonazepam]: in assay [1], the “uptake of Cl ion into cells” value is listed as “decreased”.

These data come from patent publication US6172079A, “5-substituted-3-oxadiazolyl-1,6-naphthyridin-2(1H)-one derivatives” (Dainippon Pharmaceutical Co., Ltd., priority 1997, dated 2001).
